Results as given in US10882859B2, “Kinase inhibitors” (Topivert Pharma Limited, priority 2015, dated 2021).
≈ marks a conversion by molar mass, not a printed value. Where two headings read alike, the source gives them in different places.

Columns and labels:
[1] = target: JAK1 (Homo sapiens (Human), UniProt P23458); experiment: KINOMEscan enzyme binding assay (DiscoveRx), JAK1; conditions: read-out: Dissociation Constant JAK1
Procedure: (§1) These assays may be conducted by DiscoveRx (formerly Ambit; San Diego, Calif.). The percentage inhibition produced by incubation with a test compound may be calculated relative to the non-inhibited control.

[2] = target: JAK3 (Homo sapiens (Human), UniProt P52333); experiment: KINOMEscan enzyme binding assay (DiscoveRx), JAK3; conditions: read-out: Dissociation Constant JAK3
JAK3, sequence (P52333 whole entry): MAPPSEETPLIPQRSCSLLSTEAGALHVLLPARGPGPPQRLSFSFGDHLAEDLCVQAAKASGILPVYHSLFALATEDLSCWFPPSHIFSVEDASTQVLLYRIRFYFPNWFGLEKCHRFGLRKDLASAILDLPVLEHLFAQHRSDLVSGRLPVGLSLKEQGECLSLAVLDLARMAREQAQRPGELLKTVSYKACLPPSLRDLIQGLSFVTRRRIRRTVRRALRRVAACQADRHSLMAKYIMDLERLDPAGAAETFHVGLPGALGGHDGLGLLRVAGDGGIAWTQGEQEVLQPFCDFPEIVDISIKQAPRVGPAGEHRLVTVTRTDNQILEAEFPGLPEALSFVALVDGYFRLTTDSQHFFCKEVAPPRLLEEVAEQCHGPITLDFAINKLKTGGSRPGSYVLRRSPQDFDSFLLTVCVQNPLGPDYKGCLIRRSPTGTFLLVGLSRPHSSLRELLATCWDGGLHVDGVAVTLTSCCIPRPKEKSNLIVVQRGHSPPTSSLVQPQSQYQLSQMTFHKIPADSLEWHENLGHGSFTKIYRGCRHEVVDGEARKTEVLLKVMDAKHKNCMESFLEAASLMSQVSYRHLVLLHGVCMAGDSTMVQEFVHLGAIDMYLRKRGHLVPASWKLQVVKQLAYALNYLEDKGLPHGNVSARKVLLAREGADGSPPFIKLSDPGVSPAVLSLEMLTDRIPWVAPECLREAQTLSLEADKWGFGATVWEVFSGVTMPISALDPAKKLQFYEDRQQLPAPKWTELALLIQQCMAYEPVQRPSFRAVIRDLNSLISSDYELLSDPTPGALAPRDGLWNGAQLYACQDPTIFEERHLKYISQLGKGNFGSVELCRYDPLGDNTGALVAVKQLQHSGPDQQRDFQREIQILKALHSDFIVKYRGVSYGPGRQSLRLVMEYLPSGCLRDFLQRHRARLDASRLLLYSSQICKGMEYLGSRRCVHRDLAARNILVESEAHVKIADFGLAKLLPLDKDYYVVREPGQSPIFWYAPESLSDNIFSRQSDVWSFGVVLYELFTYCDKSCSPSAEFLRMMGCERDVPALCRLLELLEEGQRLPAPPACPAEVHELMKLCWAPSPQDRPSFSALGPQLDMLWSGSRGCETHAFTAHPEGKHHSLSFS
Procedure: as §1

[3] = Solubility in fasted-state simulated colonic fluid (FaSSCoF); format: physicochemical; conditions: 25 °C, pH 6.5, fassgf or other biorelevant, thermodynamic from solid, pH 6.5, 25° C.
Procedure: The solubilities of compounds of the invention in FaSSCoF at pH 6.5 are determined using a modification of a previously-reported procedure (Vertzoni, M., et al. Pharm. Res. 2010, 27, 2187-2196). In place of the bile salt extract employed in the original procedure (which extract is no longer available), the modified procedure uses a mixture of sodium taurochlorate (0.15 g), glycocholic acid (0.15 g), ursodeoxycholic acid (0.05 g), cholic acid (0.05 g), and glycodeoxycholic acid (0.05 g). These five bile acids are ground together with a mortar and pestle to produce a fine white powder that is incorporated into the FaSSCoF, as outlined below.
FaSSCoF medium: Tris(hydroxymethyl)aminomethane (Tris; 0.275 g) and maleic acid (0.44 g) are dissolved in water (35 mL) to give a solution whose pH is adjusted to 6.5 by treatment with 0.5M NaOH (ca. 12 mL). The solution is then made up to 50 mL with water. A portion of this Tris/maleate buffer solution (ca. 25 mL) is added to a 0.5 L round-bottomed flask, before being treated with 0.00565 g of the bile acid mixture described above. Solutions of phosphatidylcholine (0.0111 g) in DCM (0.15 mL) and palmitic acid (0.0013 g) in DCM (0.15 mL) are added, then the organic solvent is evaporated off under reduced pressure at 40° C. until a clear solution, with no perceptible DCM odour, is achieved. The volume of the evaporated solution is adjusted to 50 mL by addition of the remainder of Tris/maleate buffer, then BSA (0.115 g) is added, before being dissolved by gentle agitation.
Solubility Determination: Test compounds are suspended in the pH 6.5 FaSSCoF medium to give a maximum final concentration of 2-10 mg/mL. The suspensions are equilibrated at 25° C. for 24 h, before being filtered through a glass fibre C filter. The filtrates are then diluted as appropriate for injection and quantification by HPLC with reference to a standard. Different volumes of the standard, diluted and undiluted sample solutions are injected and the solubilities are calculated using the peak areas determined by integration of the peak found at the same retention time as the principal peak in the standard injection.

[4] = target: TYK2 (Homo sapiens (Human), UniProt P29597); experiment: KINOMEscan enzyme binding assay (DiscoveRx), TYK2; conditions: read-out: Dissociation Constant TYK2
TYK2, sequence (P29597 whole entry): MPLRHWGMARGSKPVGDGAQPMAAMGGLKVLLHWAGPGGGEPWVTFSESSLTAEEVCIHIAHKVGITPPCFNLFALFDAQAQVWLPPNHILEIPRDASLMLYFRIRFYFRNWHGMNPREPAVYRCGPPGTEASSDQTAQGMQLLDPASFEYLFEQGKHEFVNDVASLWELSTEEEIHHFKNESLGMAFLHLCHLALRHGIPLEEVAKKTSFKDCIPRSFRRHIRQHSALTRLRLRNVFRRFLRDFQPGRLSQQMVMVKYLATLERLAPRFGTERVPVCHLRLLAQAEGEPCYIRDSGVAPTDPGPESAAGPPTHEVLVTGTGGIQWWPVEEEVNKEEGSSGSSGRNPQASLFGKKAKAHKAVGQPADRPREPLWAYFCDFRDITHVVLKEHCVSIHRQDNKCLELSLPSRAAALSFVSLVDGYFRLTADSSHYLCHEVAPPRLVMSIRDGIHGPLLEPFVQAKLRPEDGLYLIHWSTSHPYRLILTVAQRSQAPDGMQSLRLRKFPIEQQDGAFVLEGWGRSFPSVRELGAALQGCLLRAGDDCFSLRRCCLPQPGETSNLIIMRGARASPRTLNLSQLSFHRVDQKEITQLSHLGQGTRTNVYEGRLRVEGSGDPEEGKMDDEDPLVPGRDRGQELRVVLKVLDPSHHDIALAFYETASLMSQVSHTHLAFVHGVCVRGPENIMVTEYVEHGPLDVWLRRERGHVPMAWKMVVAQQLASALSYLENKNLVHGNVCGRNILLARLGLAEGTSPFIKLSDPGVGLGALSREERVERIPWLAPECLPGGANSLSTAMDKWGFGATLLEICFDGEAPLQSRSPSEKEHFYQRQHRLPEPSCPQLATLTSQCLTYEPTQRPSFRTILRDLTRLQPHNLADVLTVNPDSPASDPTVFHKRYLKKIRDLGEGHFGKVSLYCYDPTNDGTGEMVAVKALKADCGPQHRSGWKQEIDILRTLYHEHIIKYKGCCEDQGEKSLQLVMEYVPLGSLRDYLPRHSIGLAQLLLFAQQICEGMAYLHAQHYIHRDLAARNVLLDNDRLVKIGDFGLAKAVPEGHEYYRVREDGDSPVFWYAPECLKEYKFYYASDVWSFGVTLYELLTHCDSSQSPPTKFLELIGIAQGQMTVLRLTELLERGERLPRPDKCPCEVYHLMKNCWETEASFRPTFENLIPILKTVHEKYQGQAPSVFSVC
Procedure: as §1

[5] = target: JAK2 (Homo sapiens (Human), UniProt O60674); experiment: KINOMEscan enzyme binding assay (DiscoveRx), JAK2; conditions: read-out: Dissociation Constant JAK2
JAK2, sequence (O60674 whole entry): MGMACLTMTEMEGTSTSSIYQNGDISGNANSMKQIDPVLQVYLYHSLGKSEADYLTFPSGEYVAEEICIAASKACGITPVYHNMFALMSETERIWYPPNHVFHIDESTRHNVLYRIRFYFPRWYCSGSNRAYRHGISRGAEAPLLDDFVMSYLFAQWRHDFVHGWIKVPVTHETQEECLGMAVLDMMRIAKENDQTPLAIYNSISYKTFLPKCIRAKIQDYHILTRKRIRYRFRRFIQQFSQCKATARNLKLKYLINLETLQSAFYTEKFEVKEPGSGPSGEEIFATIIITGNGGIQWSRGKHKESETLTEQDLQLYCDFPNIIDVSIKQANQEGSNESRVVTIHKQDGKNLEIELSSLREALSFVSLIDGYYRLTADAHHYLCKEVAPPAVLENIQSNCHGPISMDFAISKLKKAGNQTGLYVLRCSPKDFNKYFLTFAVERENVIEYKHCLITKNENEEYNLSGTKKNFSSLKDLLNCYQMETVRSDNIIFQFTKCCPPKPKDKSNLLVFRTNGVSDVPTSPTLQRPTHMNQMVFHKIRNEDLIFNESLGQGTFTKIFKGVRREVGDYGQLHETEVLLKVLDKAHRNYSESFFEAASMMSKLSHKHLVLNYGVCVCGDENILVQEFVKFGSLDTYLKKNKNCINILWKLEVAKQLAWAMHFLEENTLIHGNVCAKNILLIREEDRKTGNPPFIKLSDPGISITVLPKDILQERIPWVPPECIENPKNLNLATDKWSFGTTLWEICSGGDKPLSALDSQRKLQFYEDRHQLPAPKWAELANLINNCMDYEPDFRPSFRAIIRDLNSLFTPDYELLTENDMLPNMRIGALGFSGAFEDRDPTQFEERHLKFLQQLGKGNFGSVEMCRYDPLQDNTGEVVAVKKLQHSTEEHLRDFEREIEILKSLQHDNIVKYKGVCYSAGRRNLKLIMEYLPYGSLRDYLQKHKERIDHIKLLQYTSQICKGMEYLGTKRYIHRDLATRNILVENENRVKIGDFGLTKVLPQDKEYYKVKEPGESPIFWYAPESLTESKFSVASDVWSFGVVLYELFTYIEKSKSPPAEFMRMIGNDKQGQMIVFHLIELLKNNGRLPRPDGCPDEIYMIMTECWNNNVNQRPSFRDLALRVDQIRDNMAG
Procedure: as §1

[6] = test system: CD3/IL2 stimulated PBMC cells; experiment: IFNγ release from CD3/IL2 stimulated PBMC cells; format: cell-based; conditions: Homo sapiens, CD3/IL2 stimulation, 48 h, ELISA
Procedure: PBMCs from healthy subjects are separated from whole blood using a density gradient (Lymphoprep, Axis-Shield Healthcare). Cells are added to a 96 well plate, and compound at the desired concentration added 2 hours prior to stimulation with a mixture of monoclonal antibody to CD3 (1 μg/ml, eBioscience) and human recombinant IL2 (10 ng/ml, Peprotech). After 48 hours incubation under normal tissue culture conditions, supernatants are collected and IFNγ release determined by Sandwich ELISA (Duo-set, R&D System). The IC50 is determined from the dose response curve.

[7] = test system: Jurkat cells; experiment: Cell cytotoxicity assay (propidium iodide, flow cytometry); format: cell-based, human; conditions: 24 h
Procedure: 1×10^5 Jurkat cells (immortalised human T lymphocytes) are added to the appropriate number of wells of a 96 well plate in 100 μL of media (RPMI supplemented with 10% foetal bovine serum). 1 μL of DMSO control (final concentration 1.0% v/v) or test compound (final concentration 20, 5 or 1 μg/mL) is added to the wells and incubated at 37° C., 5% CO2. After 24 hours, the plate is centrifuged at 1200 rpm for 3 minutes and the supernatant discarded. Cells are then resuspended in 150 μL (final concentration 7.5 μg/mL) of propidium iodide (PI) in PBS and incubated at 37° C., 5% CO2 for 15 minutes. After 15 minutes, cells are analysed by flow cytometry (BD accuri) using the FL3 window. The % viability is calculated as the % of cells that are PI negative in the test wells normalised to the DMSO control.

[8] = Systemic pharmacokinetics and total colon tissue distribution after single oral administration; format: in vivo, male C57BL/6 mice; conditions: mice, oral 10 mg/kg; for concentration at 0.5 h / concentration at 1 h / concentration at 2 h / concentration at 4 h / concentration at 6 h / concentration at 8 h / concentration at 12 h / concentration at 24 h: male, C57BL/6, mouse
Procedure: Studies were conducted by Sai Life Sciences (Hinjewadi, Pune, India) to investigate the systemic pharmacokinetics and total colon tissue distribution of compounds of the invention following a single oral administration in male C57BL/6 mice.
A group of twenty four male mice were administered with a solution of test compound formulated at a dose of 10 mg/10 mL/kg in aqueous hydroxypropyl-β-cyclodextrin (20% w/v in water). Blood samples ([…]) were collected from retro-orbital plexus of each mouse under light isoflurane anaesthesia such that the samples were obtained at 0.5, 1, 2, 4, 6, 8, 12 and 24 hr. The blood samples were collected from a set of three mice at each time point in a labeled micro centrifuge tube containing K2EDTA as anticoagulant. Plasma samples were separated by centrifugation at 4000 rpm for 10 min and stored below −70° C. until bioanalysis. After collection of blood sample, animals were humanely euthanized by carbon dioxide asphyxiation to collect total colon tissues. The colons were flushed with cold PBS (pH7.4) to remove contents. The total colon tissues were homogenized with cold PBS (pH7.4) of twice the weight of colon tissue and stored below −70° C. Total volume was three times the total colon tissue weights. All samples were processed for analysis by protein precipitation using acetonitrile and analyzed with a fit-for-purpose LC-MS/MS method. Pharmacokinetic parameters were calculated using the non-compartmental analysis tool of Phoenix WinNonlin® (Version 6.3).

[9] = total colon tissue, total colon, read-out: Mean total colon level
[10] = plasma, read-out: Mean plasma concentration

JAK1, sequence (P23458 whole entry): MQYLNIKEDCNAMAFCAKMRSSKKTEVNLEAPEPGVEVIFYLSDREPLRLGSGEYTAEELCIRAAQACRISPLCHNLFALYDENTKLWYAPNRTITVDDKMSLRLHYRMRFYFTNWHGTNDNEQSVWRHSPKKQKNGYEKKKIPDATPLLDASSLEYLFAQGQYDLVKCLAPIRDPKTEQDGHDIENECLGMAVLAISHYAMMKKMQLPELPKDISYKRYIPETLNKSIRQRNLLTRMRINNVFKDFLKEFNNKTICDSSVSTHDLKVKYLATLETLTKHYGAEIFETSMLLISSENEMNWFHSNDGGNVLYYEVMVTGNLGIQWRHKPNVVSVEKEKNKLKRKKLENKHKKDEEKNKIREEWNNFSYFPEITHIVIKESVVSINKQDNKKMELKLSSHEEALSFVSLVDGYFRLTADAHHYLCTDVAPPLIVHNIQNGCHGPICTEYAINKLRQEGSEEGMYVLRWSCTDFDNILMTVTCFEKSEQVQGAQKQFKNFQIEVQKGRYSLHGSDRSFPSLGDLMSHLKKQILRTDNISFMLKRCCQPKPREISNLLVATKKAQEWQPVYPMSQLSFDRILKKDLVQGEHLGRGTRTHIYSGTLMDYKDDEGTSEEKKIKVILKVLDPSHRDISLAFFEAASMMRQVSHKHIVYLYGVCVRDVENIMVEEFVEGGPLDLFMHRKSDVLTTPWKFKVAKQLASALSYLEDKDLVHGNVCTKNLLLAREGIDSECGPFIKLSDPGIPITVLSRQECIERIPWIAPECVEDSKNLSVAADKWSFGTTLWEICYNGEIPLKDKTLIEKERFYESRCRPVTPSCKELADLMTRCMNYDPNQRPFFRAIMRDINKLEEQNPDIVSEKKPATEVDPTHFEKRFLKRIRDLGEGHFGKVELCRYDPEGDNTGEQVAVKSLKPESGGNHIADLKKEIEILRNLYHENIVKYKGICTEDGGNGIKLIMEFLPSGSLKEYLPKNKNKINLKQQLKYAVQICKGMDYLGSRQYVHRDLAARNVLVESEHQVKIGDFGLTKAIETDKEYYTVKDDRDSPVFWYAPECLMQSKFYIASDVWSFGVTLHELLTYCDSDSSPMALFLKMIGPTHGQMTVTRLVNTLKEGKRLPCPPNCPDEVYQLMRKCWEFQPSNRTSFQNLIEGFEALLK

`CCc1cc(O)c(F)cc1-c1ccc2c(-c3nc4c([nH]3)CCN(C(=O)N3CCOCC3)C4)n[nH]c2c1` [Example 1, (2-(6-(2-Ethyl-5-fluoro-4-hydroxyphenyl)-1H-indazol-3-yl)-1,4,6,7-tetrahydro-5H-imidazo[4,5-c]pyridin-5-yl)(morpholino)methanone] gave a Kd [1] of 0.62 nM, a Kd [2] of 0.098 nM and a solubility thermodynamic at 24 h ([3]; Run 1, read-out: pH 6.5 FaSSCoF Solubility, Run 1) of 40 µg/mL (≈ 81.5 µM). For the same compound, the solubility thermodynamic at 24 h ([3]; Run 2, read-out: pH 6.5 FaSSCoF Solubility, Run 2) was 20 µg/mL (≈ 40.8 µM), the Kd [4] was 0.11 nM and the Kd [5] was 0.052 nM. For the same compound, the IC50 [6] was 3.6 nM, the “% viability at 1 μg/mL” value [7] was 40% and the concentration at 0.5 h [8, 9] was 327 ng/g. The concentration at 1 h [8, 9] was 984 ng/g, the concentration at 2 h [8, 9] was 19700 ng/g and the concentration at 4 h [8, 9] was 4690 ng/g. The concentration at 6 h [8, 9] was 8440 ng/g, the concentration at 8 h [8, 9] was 11900 ng/g and the concentration at 12 h [8, 9] was 4790 ng/g. It also gave a concentration at 24 h [8, 9] of 350 ng/g, a concentration at 0.5 h [8, 10] of 6.1 ng/mL and a concentration at 1 h [8, 10] of 1.8 ng/mL. It also gave a concentration at 2 h [8, 10] of 1.9 ng/mL, a concentration at 4 h [8, 10] of 0 ng/mL and a concentration at 6 h [8, 10] of 0 ng/mL. It also gave a concentration at 8 h [8, 10] of 0 ng/mL, a concentration at 12 h [8, 10] of 0 ng/mL and a concentration at 24 h [8, 10] of 0 ng/mL. For the same compound, the Systemic plasma exposure ([8]; plasma) was “very low” and the “Colonic exposure AUC0-24 h” value ([8]; total colon) was 132,979 h·ng/g.
